The nature of series [1]: Acute toxicity in BALB/c nude mouse xenografted with human HeLa cells assessed as damage in liver at 1000 mg/kg, ip by H and E staining based analysis. It counts as organism-based. Conditions: in vivo. On the technique in general: A xenograft is tissue or cells of one species grown in another, often human tumour cells in immunodeficient mice.
A short description of series [2]: Toxicity in BALB/c nude mouse xenografted with human HeLa cells assessed as animal mortality at 25 to 50 mg/kg, ip qd for 14 days. Conditions: in vivo, dose 25-50 mg/kg, time 14 day. Type of series: organism-based.
Series [3] is described as follows: Acute toxicity in BALB/c nude mouse xenografted with human HeLa cells assessed as damage in lung at 1000 mg/kg, ip by H and E staining based analysis. It counts as organism-based. The note with it: in vivo.
For series [4], the system named is HeLa. The series can be described thus: Induction of morphological change in mitochondria in human HeLa cells under hypoxic condition assessed as formation of multi-lamellar globules at 5 uM incubated for 48 hrs by TEM analysis. Type of series: functional, cell-based.
Series [5] relates to HeLa. The series can be described thus: Induction of apoptosis in human HeLa cells under hypoxic condition assessed as necrotic cells at 5 uM incubated for 48 hrs by Annexin V-FITC/PI staining based flow cytometry (reference value: 1.17 %). Type of series: functional. On the technique in general: In flow cytometry, cells or beads pass a laser one at a time.
Series [6] in a line: Toxicity in BALB/c nude mouse xenografted with human HeLa cells assessed as body weight change at 25 to 50 mg/kg, ip qd for 14 days. Type of series: organism-based. Conditions: in vivo, 336 h, dose 25-50 mg/kg, time 14 day.
In series [7] the test system is HeLa. The series can be described thus: Induction of morphological damage in human HeLa cells under normoxia condition by Hoechst 33342 staining based analysis. It counts as functional, cell-based.
Series [8] concerns HeLa. Description: Induction of morphological change in mitochondria in human HeLa cells under hypoxic condition assessed as formation of vacuoles at 5 to 10 uM incubated for 48 hrs by TEM analysis. It counts as functional, cell-based. The note with it: dose 5-10 µM.
Series [9] is described as follows: Acute toxicity in BALB/c nude mouse xenografted with human HeLa cells assessed as damage in heart at 1000 mg/kg, ip by H and E staining based analysis. It counts as organism-based. The note with it: in vivo.
Series [10] deals with HeLa. Description: Induction of mitophagy in human HeLa cells under hypoxic condition assessed as decrease in p62 level incubated for 24 hrs by Western blot analysis. Type of series: functional, cell-based. Conditions: dose 1-10 µM.
Series [11] has as its system HeLa. The series can be described thus: Antitumor activity against human HeLa cells xenografted in BALB/c nude mouse assessed as tumor growth suppression at 25 to 50 mg/kg, ip qd for 14 days. It counts as functional, organism-based. Conditions: dose 25-50 mg/kg, time 14.0 day.
Series [12] concerns HeLa. The series can be described thus: Induction of apoptosis in human HeLa cells under hypoxic condition assessed as viable cells at 5 uM incubated for 48 hrs by Annexin V-FITC/PI staining based flow cytometry (reference value: 98.13 %). Type of series: functional. The note with it: read-out: Activity.
The test system of series [13] is HeLa. The series can be described thus: Induction of mitochondrial membrane potential dissipation in human HeLa cells under hypoxic condition at 5 uM incubated for 24 hrs by flow cytometry. Type of series: functional, cell-based.
Series [14] relates to HeLa. The series can be described thus: Induction of apoptosis in human HeLa cells under hypoxic condition assessed as increase in cleaved PARP-1 level at 1 to 10 uM incubated for 48 hrs by Western blot analysis. Type of series: functional, cell-based. The note with it: dose 1-10 µM. (In general: A western blot detects proteins with antibodies after separation by electrophoresis.)

Series [15] relates to HeLa. The series can be described thus: Cytotoxicity against human HeLa cells under normoxia condition incubated for 48 hrs by MTT assay. Type of series: functional, cell-based.
In series [16] the test system is HeLa. The series can be described thus: Antitumor activity against human HeLa cells xenografted in BALB/c nude mouse at 25 mg/kg, ip qd for 14 days relative to control. Type of series: functional. Conditions: 336 h, time 14 day, read-out: TGI.
Series [17] has as its system HepG2. The series can be described thus: Cytotoxicity against human HepG2 cells under hypoxic condition incubated for 48 hrs by MTT assay. Type of series: functional, cell-based. The note with it: HepG2, 48 h.
Series [18] has as its system HeLa. Description: Cytotoxicity against human HeLa cells under hypoxic condition incubated for 48 hrs by MTT assay. It counts as functional, cell-based.
Series [19] concerns HepG2. Description: Cytotoxicity against human HepG2 cells under normoxia condition incubated for 48 hrs by MTT assay. Conditions: HepG2, 48 h. Type of series: functional, cell-based.
In series [20] the test system is HeLa. Description: Induction of morphological change in mitochondria in human HeLa cells under hypoxic condition assessed as onion-like circle formation of cristae folds in inner membrane at 5 uM incubated for 48 hrs by TEM analysis. Type of series: functional, cell-based.
Series [21] has as its system HeLa. Description: Induction of mitophagy in human HeLa cells under hypoxic condition assessed as co-localization of mitochondria and lysosomes at 5 uM incubated for 24 hrs by CLSM analysis. Type of series: functional, cell-based.
The test system of series [22] is HeLa. Description: Induction of mitochondrial membrane potential dissipation in human HeLa cells under hypoxic condition assessed as accumulation of green fluorescence at 5 uM incubated for 24 hrs by JC-1 staining based CLSM analysis. It counts as functional, cell-based.
Series [23] is described as follows: Acute toxicity in BALB/c nude mouse xenografted with human HeLa cells assessed as damage in kidney at 1000 mg/kg, ip by H and E staining based analysis. It counts as organism-based. The note with it: in vivo.
The subject of series [24] is HeLa. The series can be described thus: Induction of apoptosis in human HeLa cells under hypoxic condition assessed as late apoptotic cells at 5 uM incubated for 48 hrs by Annexin V-FITC/PI staining based flow cytometry (reference value: 0.10 %). It counts as functional.
For series [25], the system named is HeLa. The series can be described thus: Induction of apoptosis in human HeLa cells under hypoxic condition assessed as early apoptotic cells at 5 uM incubated for 48 hrs by Annexin V-FITC/PI staining based flow cytometry (reference value: 0.60 %). It counts as functional.
Series [26] can be described thus: Acute toxicity in BALB/c nude mouse xenografted with human HeLa cells assessed as damage in spleen at 1000 mg/kg, ip by H and E staining based analysis. Conditions: in vivo. Type of series: organism-based.
Series [27] has as its system HeLa. The series can be described thus: Induction of mitophagy in human HeLa cells under hypoxic condition assessed as encapsulation of mitochondria in vacuoles at 10 uM incubated for 48 hrs by TEM analysis. It counts as functional, cell-based.
The subject of series [28] is HeLa. The series can be described thus: Induction of mitophagy in human HeLa cells under hypoxic condition assessed as increase in ratio of LC3-II to LC3-I levels incubated for 24 hrs by Western blot analysis. Type of series: functional, cell-based. The note with it: dose 1-10 µM.
Series [29] has as its system HeLa. The series can be described thus: Induction of apoptosis in human HeLa cells under hypoxic condition assessed as increase in cleaved caspase-3 level at 1 to 10 uM incubated for 48 hrs by Western blot analysis. It counts as functional, cell-based. Conditions: dose 1-10 µM.
For series [30], the system named is HeLa. The series can be described thus: Induction of morphological change in mitochondria in human HeLa cells under hypoxic condition assessed as disappearance of cristae at 5 to 10 uM incubated for 48 hrs by TEM analysis. Type of series: functional, cell-based. Conditions: dose 5-10 µM.
The test system of series [31] is HeLa. Description: Antitumor activity against human HeLa cells xenografted in BALB/c nude mouse at 50 mg/kg, ip qd for 14 days relative to control. It counts as functional. The note with it: 336 h, time 14 day, read-out: TGI.
The test system of series [32] is HeLa. Description: Induction of morphological damage in human HeLa cells under hypoxic condition by Hoechst 33342 staining based analysis. It counts as functional, cell-based.
Series [33] deals with HeLa. The series can be described thus: Induction of morphological change in mitochondria in human HeLa cells under hypoxic condition assessed as increase in IMMT level at 5 uM incubated for 48 hrs by immunofluorescence based analysis. Type of series: functional, cell-based.

pIC50: −log10 of the molar value. Calls of active or inactive are those of the source. The calls are words filed in the database; no cut-off is given here.

What is called mortality is the percentage killed. With `COc1ccc(C(=O)/C=C/c2cccc(N)c2)cc1F`, the Activity entry in series [1] and in [3] was “Non-toxic” throughout. Besides, the mortality at 336 h in series [2] amounted to 50%.

A word on the pIC50: it is the IC50 on a negative log10 scale, so that one unit is a factor of ten. For the compound `COc1ccc(C(=O)/C=C/c2cccc([N+](=O)[O-])c2)cc1F`, the result in series [4], in series [8], in series [10], in [11], in [13] and in [14] was Active. The result in series [20], in [21], in series [22], in series [28], in [29] and in [30] was Active. In addition, the outcome in [32] and in series [33] was Active. Also, the Activity is 7.74% in series [5]; “Non-toxic” in series [6]; “Non-toxic” in series [9]; “Non-toxic” in [1]; “Non-toxic” in series [3]; “Non-toxic” in series [23]. Further, the Activity in [24] was 63.25%; in series [25], 10.21%; in [26] it was “Non-toxic”; in [27], “Active; Result Indicates That Mitochondria Were Removed From Cells Through Autophagosomes”. Besides, the outcome in series [7] was inactive. Further, the viability at 5 µM in series [12] worked out at 18.8%. For the same compound, the pIC50 was below 4.30 in [15], 5.30 in series [17], 5.48 in [18] and below 4.30 in series [19]. The inhibition in vivo at 25 mg/kg in [16] amounted to 30.3%. Also, the inhibition in vivo at 50 mg/kg in series [31] worked out at 57.4%.

Take `COc1ccc(C(=O)/C=C/c2ccc(OC)c([N+](=O)[O-])c2)cc1Br`: the pIC50 in series [15] was below 4.00; in [17], 4.81; in series [18] it was 4.82; in series [19] it was below 4.30.

As for `O=C(/C=C/c1cccc([N+](=O)[O-])c1)c1ccc(OCc2cn(CCCC[P+](c3ccccc3)(c3ccccc3)c3ccccc3)nn2)c(Br)c1`, the pIC50 was below 4.30 in [15], 4.58 in series [17], below 4.30 in [18] and 4.89 in [19].

For the compound `COc1ccc(/C=C/C(=O)c2ccc(OCc3cn(CCCC[P+](c4ccccc4)(c4ccccc4)c4ccccc4)nn3)c(Br)c2)cc1[N+](=O)[O-]`, the pIC50 in [15] is 4.97; in [17], 4.71; in series [18], below 4.30; in [19] it was 4.67.

With `COc1ccc(C(=O)/C=C/c2ccc(OC)c([N+](=O)[O-])c2)cc1F`, the pIC50 in [15] was below 4.00; in [17] it was 4.64; in series [18] it was below 4.30; in [19], below 4.30.
